Holding throughout (format): in vivo
Experiment [1] concerns Tetranychus urticae. The experiment is described as follows: Tetranychus urticae spray test, OP-resistant. The following applies: application rate 100 g/ha; after 6 days. The gist of the method:
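Bean leaf discs (Phaseolus vulgaris) carrying all stages of OP-resistant mites are sprayed with compound formulated in solvent and emulsifier-containing water. Efficacy (% mites killed) is scored after 6 days.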

The test system of experiment [2] is Musca domestica. Put plainly: Musca domestica test. The following applies: application rate 100 ppm; adult houseflies; after 2 days. The gist of the method:
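Feeding exposure: adult Musca domestica, 10 per vessel, given a sponge with sugar solution and test formulation at the desired concentration; % mortality determined on day 2.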

Experiment [3] relates to Phaedon cochleariae. Put plainly: Phaedon cochleariae spray test. The following applies: application rate 100 g/ha; larvae; after 7 days. The gist of the method:
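Chinese cabbage leaf discs were sprayed with the compound formulated in water containing 1000 ppm emulsifier. After drying, they were infested with mustard beetle larvae. Efficacy was scored as % larvae killed after 7 days (100% = all dead, 0% = none).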

Experiment [4] deals with Ctenocephalides felis. The experiment is described as follows: Ctenocephalides felis in vitro contact test with adult cat fleas. The note with it: application rate 5 μg/cm^2 (500 g/ha); after 48 h; fleas dead or moribund. The gist of the method:
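Test tubes were coated with 250 μl acetone solution of compound, giving 5 μg/cm^2 at 900 ppm, then dried and stocked with 5-10 adult cat fleas. After 48 h at room temperature and ambient humidity, dead or moribund fleas were counted; efficacy given as % (100% = all dead or moribund).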

Experiment [5] relates to Spodoptera frugiperda. The experiment is described as follows: Spodoptera frugiperda spray test. The following applies: application rate 100 g/ha; caterpillars; after 7 days. The gist of the method: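 Maize leaf discs were sprayed with compound formulated in solvent plus water containing 1000 ppm emulsifier, dried, then infested with Spodoptera frugiperda caterpillars. Efficacy in % mortality was scored after 7 days (100% all killed, 0% none).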

For experiment [6], the system named is Myzus persicae. Put plainly: Myzus persicae spray test. The note with it: application rate 100 g/ha; after 6 days. The procedure: Myzus persicae—Spray Test
To produce an appropriate active ingredient formulation, 1 part by weight of active ingredient is dissolved using the specified parts by weight of solvent and made up with water containing an emulsifier concentration of 1000 ppm until the desired concentration is attained. To produce further test concentrations, the preparation is diluted with emulsifier-containing water.
Discs of Chinese cabbage leaves (Brassica pekinensis) infested by all stages of the green peach aphid (Myzus persicae) are sprayed with an active ingredient formulation of the desired concentration.
After 6 days, efficacy in % is determined. 100% means that all the aphids have been killed; 0% means that none of the aphids have been killed.

In experiment [7] the test system is Lucilia cuprina. Put plainly: Lucilia cuprina test. The note with it: application rate 100 ppm; L1 larvae; after 2 days. The gist of the method:
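About 20 L1 larvae placed in vessels with minced horsemeat treated with compound (DMSO concentrate diluted in water) at the desired concentration. Kill (%) scored after 2 days; 100% means all larvae dead, 0% none.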

Experiment [8] relates to Boophilus microplus. Put plainly: Boophilus microplus injection test. The following applies: application rate 20 μg/animal; injection into abdomen; assessed after 7 days. The gist of the method: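 Read-out is % efficacy from fertile egg laying at 7 days: 100% means no tick laid fertile eggs, 0% means all eggs fertile. Each of 5 engorged adult females received 1 μl of DMSO test solution injected abdominally.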

Experiment [9] deals with Rhipicephalus sanguineus. The experiment is described as follows: Rhipicephalus sanguineus in vitro contact test with adult brown dog ticks. The following applies: application rate 5 μg/cm^2 (500 g/ha); after 48 h; ticks dead or moribund. The procedure, abridged:
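Test tubes (25 ml) were coated by dissolving active ingredient in acetone p.a., diluting to the required concentration, and spreading 250 μl over the inner walls and base on an orbital shaker at 30 rpm for 2 h. Once dry, 5-10 adult Rhipicephalus sanguineus were added, and tubes were capped with perforated lids and kept horizontal in darkness at room temperature. At 48 h, ticks were knocked down and heated at 45-50° C. for up to 5 min. Those unable to climb away were counted dead or moribund, and efficacy ran from 0% to 100%.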

The subject of experiment [10] is Ctenocephalides felis. Put plainly: Ctenocephalides felis oral test. The note with it: application rate 100 ppm in citrated cattle blood; after 2 days. The procedure, abridged: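 Oral exposure of unfed adult fleas, roughly 20 per chamber, to compound-spiked citrated cattle blood taken up across a parafilm membrane. Read-out is percent kill at 2 days, where 100% means every flea dead.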

Experiment [11] has as its system Boophilus microplus Parkhurst strain, SP-resistant. Put plainly: Boophilus microplus dip test. The note with it: application rate 100 ppm, assessed after 7 days. The method, then:
Boophilus microplus—Dip Test
Test animals: cattle ticks (Boophilus microplus) Parkhurst strain, SP-resistant
Solvent: dimethyl sulphoxide
10 mg of active ingredient are dissolved in 0.5 ml of dimethyl sulphoxide. For the purpose of producing a suitable formulation, the active ingredient solution is diluted with water to the concentration desired in each case.
This active ingredient formulation is pipetted into tubes. 8-10 adult engorged female cattle ticks (Boophilus microplus) are transferred into a further tube with holes. The tube is immersed into the active ingredient formulation, and all the ticks are completely wetted. After the liquid has run out, the ticks are transferred on filter discs into plastic dishes and stored in a climate-controlled room.
Efficacy is assessed after 7 days by laying of fertile eggs. Eggs which are not visibly fertile are stored in a climate-controlled cabinet until the larvae hatch after about 42 days. An efficacy of 100% means that none of the ticks has laid any fertile eggs; 0% means that all the eggs are fertile.

In the case of `Cn1nc(C(F)(F)C(F)(F)F)c(C(F)(F)F)c1-n1cc(-c2cccc(NC(=O)c3ccc(F)cc3)c2)cn1` [Example 1-003], the efficacy is recorded as 100% in [1]; 100% in experiment [3]; 100% in [4]; 100% in experiment [5]; 90% in experiment [6]; 100% in experiment [9]. The “efficacy (kill in %)” value in experiment [2], in experiment [7] and in experiment [10] was 100% in each case. Moreover, the “efficacy (laying of fertile eggs)” value in experiment [8] is 100%.
On to `Cn1nc(C(F)(F)C(F)(F)F)c(C(F)(F)F)c1-n1cc(-c2cccc(NC(=O)c3ccncc3F)c2)cn1` [Example 1-004], for which the efficacy in [1], in experiment [3], in experiment [4], in [5] and in [9] was 100% each time. Besides, the “efficacy (laying of fertile eggs)” value in [11] and in [8] was 100% throughout. In addition, the “efficacy (kill in %)” value in experiment [2], in experiment [7] and in experiment [10] was 100% throughout.
Take `Cn1nc(C(F)(F)C(F)(F)F)c(C(F)(F)F)c1-n1cc(-c2cccc(NC(=O)c3ccnc(Cl)c3)c2)cn1` [Example 1-006]: the efficacy in experiment [1], in experiment [3], in experiment [4], in experiment [5] and in [6] was 100% each time. Further, the “efficacy (kill in %)” value in experiment [2], in experiment [7] and in experiment [10] was 100% in each case. For the same molecule, the “efficacy (laying of fertile eggs)” value in experiment [8] is on record as 100%.
Take `Cn1nc(C(F)(F)C(F)(F)F)c(C(F)(F)F)c1-n1cc(-c2ccc(F)c(NC(=O)c3ncccn3)c2)cn1` [Example 1-036]: the “efficacy (kill in %)” value in experiment [2], in experiment [7] and in experiment [10] was 100% in each case. Also, the efficacy in [3], in experiment [4], in experiment [5], in experiment [6] and in experiment [9] was 100% throughout. The “efficacy (laying of fertile eggs)” value in experiment [8] was determined as 100%.
Regarding `CN(C(=O)c1ccc(F)cc1)c1cc(-c2cnn(-c3c(C(F)(F)F)c(C(F)(F)C(F)(F)F)nn3C)c2)ccc1F` [Example 1-037], the “efficacy (laying of fertile eggs)” value in experiment [11] turned out to be 80%; in experiment [8] it was 100%. The figures for the “efficacy (kill in %)” value in experiment [2], in [7] and in [10] were 90%, 100% and 100%, respectively. Also, the efficacy in [3], in experiment [4] and in experiment [5] was 100% throughout.
Regarding `COc1cccc(C(=O)Nc2cc(-c3cnn(-c4c(C(F)(F)F)c(C(F)(F)C(F)(F)F)nn4C)c3)ccc2F)c1` [Example 1-042], the efficacy in experiment [1], in experiment [3] and in experiment [9] was 100% in each case. Further, the “efficacy (laying of fertile eggs)” value came out at 90% in experiment [11] and 100% in experiment [8]. For the same molecule, the “efficacy (kill in %)” value in experiment [7] and in experiment [10] was 100% throughout.
For the molecule `Cn1nc(C(F)(F)C(F)(F)F)c(C(F)(F)F)c1-n1cc(-c2ccc(F)c(NC(=O)c3cccs3)c2)cn1` [Example 1-049], the “efficacy (laying of fertile eggs)” value in experiment [11] and in experiment [8] was 100% throughout. Besides, the results for the “efficacy (kill in %)” value in experiment [2], in [7] and in experiment [10] were 80%, 100% and 100%, respectively. Moreover, the efficacy in [4] and in [9] was 100% in each case.
`Cc1ccc(C(=O)Nc2cc(-c3cnn(-c4c(C(F)(F)F)c(C(F)(F)C(F)(F)F)nn4C)c3)ccc2F)cc1` [Example 1-060]: the efficacy is 100% in [1]; 100% in experiment [3]; 80% in [4]; 83% in [5]; 100% in experiment [9]. The “efficacy (laying of fertile eggs)” value in [11] and in [8] was 100% each time. The “efficacy (kill in %)” value in [7] and in experiment [10] was 100% each time.
For `Cn1nc(C(F)(F)C(F)(F)F)c(C(F)(F)F)c1-n1cc(-c2ccc(F)c(NC(=O)c3cccc(F)c3)c2)cn1` [Example 1-073], the efficacy in experiment [1], in experiment [3], in experiment [4], in [5] and in experiment [9] was 100% each time. Moreover, the “efficacy (laying of fertile eggs)” value in [11] and in experiment [8] was 100% throughout. In addition, the figures for the “efficacy (kill in %)” value in experiment [2], in [7] and in experiment [10] were 90%, 100% and 100%, respectively.
As for `Cc1cccc(C(=O)Nc2cc(-c3cnn(-c4c(C(F)(F)F)c(C(F)(F)C(F)(F)F)nn4C)c3)ccc2F)c1C` [Example 1-080], the “efficacy (laying of fertile eggs)” value in [11] and in experiment [8] was 100% in each case. Moreover, the “efficacy (kill in %)” value in experiment [10] is 95%.
Consider `Cn1nc(C(F)(F)C(F)(F)F)c(C(F)(F)F)c1-n1cc(-c2ccc(F)c(NC(=O)c3cncc(F)c3)c2)cn1` [Example 1-086], for which the efficacy amounted to 90% in experiment [1]; 100% in [3]; 100% in experiment [4]; 100% in experiment [5]; 100% in experiment [6]; 100% in [9]. Further, the “efficacy (kill in %)” value in [2], in [7] and in [10] was 100% throughout. Moreover, the “efficacy (laying of fertile eggs)” value in [8] came out at 100%.
As for `COc1cc(C(=O)Nc2cc(-c3cnn(-c4c(C(F)(F)F)c(C(F)(F)C(F)(F)F)nn4C)c3)ccc2F)ccc1F` [Example 1-094], the efficacy in experiment [1] is reported as 100%; in experiment [3], 100%; in [4] it was 100%; in experiment [5], 83%; in [9], 100%. Moreover, the “efficacy (laying of fertile eggs)” value in [11] and in experiment [8] was 100% throughout. Besides, the “efficacy (kill in %)” value in experiment [2], in experiment [7] and in experiment [10] was 100% in each case.
As for `Cn1nc(C(F)(F)C(F)(F)F)c(C(F)(F)F)c1-n1cc(-c2cnc(Cl)c(NC(=O)c3ccc(F)cc3)c2)cn1` [Example 2-001], the efficacy in experiment [1], in experiment [3], in [5] and in experiment [9] was 100% throughout. In addition, the “efficacy (laying of fertile eggs)” value was found to be 80% in experiment [11] and 100% in experiment [8]. In addition, the “efficacy (kill in %)” value in experiment [2], in experiment [7] and in [10] was 100% in each case.
